Experimental data reported in patent US9738932B2, “Biomarkers for cardiovascular side-effects induced by cox-2 inhibitory compounds” (FIRALIS SAS, priority 2005, dated 2017).
Entries after “also recorded” stand apart in the source; their conditions may differ.

What was measured:
Assay type in all cases: in vivo, cynomolgus monkey (Macaca fascicularis)
[1] = test system: INFγ inducible proteins in serum and plasma; experiment: Rules-Based Medicine (RBM) human MAP multiplex protein profiling in serum and plasma; conditions: monkey #A60055
Excerpt: To obtain biomarkers predicting cardiovascular adverse effect of tested compounds/drugs, expression levels of proteins have been analysed in cynomolgus monkey serum and plasma from the present analysis using human Multi-Analyte Profile (MAP) Technology. Human MAP could be used to measure protein levels of more than 80 antigens in monkey serum and plasma (Rules-Based Medicine Inc (RBM®), Austin, Tex. USA).
Soluble proteins present in serum and plasma of the same monkeys have been measured using a multiplex assay produced by Rules-Based Medicine (RBM®) of Texas.

veins (vascular tissue) = experiment: Histopathological evaluation of tissues of treated monkeys; conditions: animal A60055, 50 mg/kg/day oral gavage, two weeks
Excerpt: Administration of compounds.
Gene expression profiles.

INFγ = experiment: ELISA of INFγ protein in monkey serum and plasma; conditions: monkey #A60055
Excerpt: FIG. 7. ELISA confirmation of INFγ protein level in monkey serum and plasma samples.
These peripheral biomarkers might allow safe use of cox-2 inhibitory compounds in clinics and selection of cox-2 inhibitory follow-up compounds without cardiovascular toxicity.

CS(=O)(=O)c1ccc(C2=C(c3ccccc3)C(=O)OC2)cc1 [Vioxx®, rofecoxib]
level of INFγ inducible proteins in serum and plasma (multiplex assay) [1]: increased level
histopathological vascular findings (veins (vascular tissue)): focal vascular necrosis in the veins; also recorded: clear sign of vasculitis in veins
INFγ protein expression by ELISA (INFγ): Increased expression
